{
  "source": "paper PMC10683482",
  "about": "“Offsetting Low-Affinity Carbohydrate Binding with Covalency to Engage Sugar-Specific Proteins for Tumor-Immune Proximity Induction” (ACS Central Science, 2023)",
  "key": {"[1]": {"tested_on": "human IgG (polyclonal antirhamnose antibodies)", "assay": "BLI monitoring of covalent reaction with human IgG (Figure 4B)", "type": "binding", "conditions": "10 μM cARM, 230 μM human IgG, up to 25 h", "text": "The design of rhamnose-SO2F-cARM was again supported by in-silico docking and predicted to preorganize electrophilic SO2F proximal to lysine 104 and serine 53 of the anti-23F heavy chain as well as tyrosine 32 of the light chain (Figure S3). To evaluate the capacity of rhamnose-SO2F-cARMs to specifically label polyclonal antirhamnose antibodies, a tool cARM with a biotin TBD was synthesized (compound 12, Figure 4A, Scheme S5). As an orthogonal kinetics assay to fluorescent gels, tool compound 12 labeling kinetics was first evaluated using an in-house BLI assay and compared to acyl imidazole cARM and ARM analogs. […] Solutions were immediately loaded onto streptavidin probes (Figure 4B, Figure S8). In this assay, rhamnose competition blocks noncovalent antirhamnose recruitment, thus the signal amplitude is directly proportional to the covalently labeled antibody product.\nFigure 4 Selectivity and kinetic analysis of optimized Rha-SO2F-cARMs A. Chemical structures of tool compounds used in this study. B. cARM 12 (10 μM) was incubated with human IgG or BSA (230 μM) then diluted 8× with 100 mM competitor rhamnose spiked kinetics buffer and loaded onto streptavidin probes in BLI. The association plateau was plotted against time to yield the % labeled vs time covalent labeling curve C. Kinetic fluorescence SDS-PAGE assay similar to that in Figure 2D. […]"}, "anti-23F antibody": {"tested_on": "anti-23F antibody", "assay": "Mass spectrometry study of anti-23F labelling", "type": "binding, human", "conditions": "10 µM cARM, 2.7 µM anti-23F, 45 hours", "experimental": "To further confirm selectivity, an MS study was conducted to determine the site of labeling (Figures S10 and S11). […] No other labeling site was detected on the light chain; however, the lability of the SO2F-serine/tyrosine linkage to MS sample preparation protocols likely limited complete labeling site coverage. […] Due to the low labeling efficiency of rhamnose-AI-cARM, no labeling site could be identified. […] Determining the selectivity for antirhamnose antibodies in the presence of off-target cell surface proteins will be the focus of future in vivo studies.\nMass Spectrometry Study – Anti-23F Labelling\nAnti-23F (2.7 µM) was incubated with 10 µM of Biotin-AI-cAR M 4 or Biotin-SO2F-cAR M 12, or PBS (antibody only) for 45 hours before MS analysis. Analysis was completed by Bioinformatics Solutions\nInc. Briefly, for intact protein analysis each sample was treated with PNGase F to remove glycans followed by LC-MS analysis. To determine site of labelling, each sample was digested with tryspin, chymostrypsin, and pepsin then analyzed by LC-MS/MS on a timsTOF Pro. Peptide spectra were mapped to a known antibody sequence (anti -23F antibody, Creative Biolabs - PABX-173). No labelling was identified with acyl imidazole containing cARM 4. […]\napproxima tely 30% labelling post MS protocol (Figure S11)\nFigure S10. Sample analysis of peptide mapping of anti-23F heavy chain. Modification with cARM 12 is […]\n(1 picture or pasted object on this page, not shown here)"}},
  "data": [
    {"smiles": "C[C@@H]1O[C@@H](OCc2cn(CCc3cn(C(=O)OCCOCCOCCOCCOCCOCCOCCOCCNC(=O)CCCC[C@@H]4SC[C@@H]5NC(=O)N[C@@H]54)cn3)nn2)[C@H](O)[C@H](O)[C@H]1O", "note": "[compound 4]", "values": [
      {"measurement": "progress of labeling reaction", "setting": "[1]", "value": "still in the linear phase of the reaction"},
      {"measurement": "site of labelling (LC-MS/MS peptide mapping)", "setting": "anti-23F antibody", "value": "No labelling"}
    ]}
  ]
}
